Experimental data from patent publication US9717699B2, “Sterilized compositions of cyanoacrylate monomers and naphthoquinone 2,3-oxides” (Adhezion Biomedical, LLC, priority 2014, dated 2017).

Assay: Miscibility/solubility of additive in cyanoacrylate monomer
Format: physicochemical
Conditions: activated 2-octyl cyanoacrylate composition, room temperature

Row | Structure (SMILES) | Miscibility with 2-octyl cyanoacrylate | Miscibility with 2-octyl cyanoacrylate (listed as Phylloquinone oxide)
1 | CC1=CC(=O)c2ccccc2C1=O [2-methyl-1,4-naphthoquinone] | well-miscible | 
2 | C/C(=C\CC12OC1(C)C(=O)c1ccccc1C2=O)CCCC(C)CCCC(C)CCCC(C)C (centres unmarked) [Vitamin K1 oxide, 2-methyl-3-phytyl-1,4-naphthoquinone 2,3-oxide] | well-miscible | well miscible
3 | CC(=O)Oc1cc(C)c(OC(C)=O)c2ccccc12 [1,4-diacetoxy-2-methylnaphthalene] | well soluble | 
4 | CC1=C(C/C=C(\C)CCC[C@H](C)CCC[C@H](C)CCCC(C)C)C(=O)c2ccccc2C1=O [2-methyl-3-phytyl-1,4-naphthoquinone] | well dissolved | 
